From patent publication US20100092456A1, “METHODS OF TREATMENT” (priority 2006, published 2010)
No end group written: not given here.

Columns and labels:
[1] = system: PtdIns(4,5)P2 in HeLa cells; test: PtdIns(4,5)P2 levels visualised with GFP-PH domain of PLCdelta1 probe in HeLa cells; type: cell-based; conditions: transient, levels quickly recover
From the text: Changes in intracellular PtdIns(4,5)P2 levels following stimulation with neurokinin A were visualised in real time using a fusion protein of GFP and the PH domain of PLCdelta1 as a probe. GFP PLC delta 1 is a highly specific in vivo probe for PIP2 in cells.
HeLa cells were transiently transfected with an expression plasmid encoding a fusion protein of GFP and the PH domain of PLCdelta1.
HeLa cells were transiently transfected with an expression plasmid encoding a fusion protein of GFP and the pleckstrin homology domain of PLCdelta1. GFP PLC delta1 is a highly specific in vivo probe for PtdIns(4,5)P2 in cells. Results are in FIG. 10.

type II β PIP kinase = test: Type II PIP kinase activity in immunoprecipitates using PtdIns5P as substrate; type: cell-based
Method: FIG. 3. A) MEL cells were either untransfected or transfected to express myc-type II b PIP kinase. After 40 hours the cells some of the cells were irradiated with 200 J/m of UV light before reculturing for varying times indicated in the figure. The cells were collected and endogenous type II PIP kinase was immunoprecipitated from whole cell lysates using an anti-pan type II b PIP kinase antibody or an anti-myc antibody. Type II PIP kinase activity in the immunoprecipitates was determined using PtdIns5P as the substrate. The results are calculated from 3 independent experiments.
To test this hypothesis endogenous type II PIP kinases were immunoprecipitated from control-treated and UV-irradiated MEL cells and their activities were measured using PtdIns5P as a substrate. […] As the antibody used to immunoprecipitate recognises all type II PIP kinase isoforms, we transfected MEL cells with myc-tagged type II β PIP kinase and measured its activity in immunoprecipitates in response to UV irradiation. […] UV irradiation is known to regulate both stress-activated protein kinases (SAPKs) and mitogen-activated protein kinases (MAPKs) and therefore we determined if any of these UV induced pathways impinged on type II β PIP kinase activity. […] Therefore we assessed whether activation of the p38 pathway alone could mediate type II β PIP kinase inhibition. […]

[2] = target: T1, PtdIns(4,5)P—F PH domain complex (Homo sapiens, UniProt P51178); test: Displacement of PtdIns(4,5)P—F from the PH domain complex by unlabelled lipids; type: binding
T1 construct: GST-tagged PLCδ1 Pleckstrin homology (PH) domain protein expressed and purified in-house in E. Coli; made in house; host or cells: E. coli
T1 sequence (P51178 21-130 limits assumed): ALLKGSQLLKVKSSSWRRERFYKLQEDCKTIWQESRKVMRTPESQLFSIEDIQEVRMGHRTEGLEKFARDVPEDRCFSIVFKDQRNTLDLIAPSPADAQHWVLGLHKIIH
Method: FIG. 7. A 10 nM-1 uM PtdIns(4,5)P—F PH domain complex was incubated with increasing concentrations of unlabelled PtdIns(4,5) P2 (circles) and unlabelled PtdIns5P (squares). The unlabelled product disrupts the complex fully at 1 mM, substrate has no effect at 16 mM, (duplicates).
FIG. 20: A PtdIns(4,5)P—F PH domain complex (10 nM/500 nM) was incubated with increasing concentrations of unlabelled PtdIns(4,5) P2 (triangles) and unlabelled PtdIns4P (diamonds). The unlabelled product disrupts the complex fully at 750 nM, substrate has no effect at 5 μM.

MEL cells = test: MEL cell viability and cell cycle profile; type: cell-based, Murine; conditions: compound alone
Method: Ethanol fixed cells were incubated with prodium iodide (20 μg/ml) and RNAse (10 μg/ml) before cell cycle analysis by flow cytometry. Proteins were analysed by standard western blotting procedures employing the following antibodies: anti-tubulin and anti-flag (both from Sigma), anti-actin (Chemicon International), anti-histone 4 (Upstate Biotechnology), anti-phospho p54, anti-phospho p46, anti-phospho p38, total p54, total p46 and total p38 (all from Cell Signalling Technology) anti-ING2, anti EGFP (Clontech), anti-type II β PIP kinase, anti-GST and anti-myc (both generated in house).
To investigate the sub-nuclear localisation of UV-induced nuclear PtdInsPs, we fractionated nuclei to generate nucleoplasm (containing nuclear membranes and soluble nuclear material) and the chromatin enriched fraction (CEF) (FIG. 1c inset). […] Thus, the PtdInsP pool present in the CEF is a target for regulation in response to cellular stress.

[3] = system: nuclear PtdIns4P and PtdIns5P in differentiated MEL cells; test: Mass assay of nuclear PtdIns4P and PtdIns5P in differentiated MEL cells; type: cell-based, Murine; conditions: NAC 5 mM or BSO 100 μM for 4 hours, H2O2 500 μM for 15 minutes, vs control-treated cells
Method: B) Differentiated MEL cells were treated with NAC (5 mM) or BSO (100 μM), each for 4 hours, or H2O2 (500 μM) for 15 minutes prior to the isolation of intact nuclei. A mass assay was used to determine the levels of PtdIns4P and PtdIns5P. The results are expressed as % of control-treated differentiated MEL cells and are calculated from 3 independent experiments.
MEL, HEK 293 and HT1080 cells were maintained in routine culture using 10% FCS in DMEM. When required, differentiated MEL cells were prepared by the addition of 1.5% DMSO to the culture medium for a period of 4 days. MEL cells were transfected using Effectene (Qiagen), HEK 293 cells with calcium phosphate and HT1080 with LT1 (Mirus corporation). The following plasmids were used: pEGFP, pCDNA3 (both from Clontech), pCDNA3-Flag-MKK6+ and pCDNA3-Flag-MKK6-(from Dr. M. Schmidt, The Netherlands Cancer Institute), pSuper (from Dr. R. Agami, The Netherlands Cancer Institute), pCDNA3-EGFP-IpgD/IpgE, pCDNA3-EGFP-PIP kinase typeIIβ, and RNAi for type II β PIP kinase (termed pSuper-IIβRNAi). The targeting sequence for the latter was […]. Irradiation of the cells with 254 nm UV-C light (0-200 J/m) or gamma rays (0-40 Gy, from a Cesium 137 source) was performed using 6-well or 10 cm plastic petri dishes with a depth of medium covering the cells not exceeding 3-4 mm. Thereafter, the cells were returned to normal culture conditions for 30 minutes before subcellular fractionation was started. To determine long terms effects of UV and gamma irradiation the cells were returned to normal culture conditions for up to 48 hours.
MEL cells were washed, twice in ice cold PBS before their fractionation using a detergent-free hypotonic buffer. This method yields a mixed cytosol and membrane fraction and intact nuclei after separation using a sucrose cushion. MEL cell nuclei were fractionated into nucleoplasm and the CEF using modifications of a previously published method. Briefly, intact MEL cell nuclei were resuspended in ice cold hypotonic buffer (3 mM EDTA, 0.2 mM EGTA and 1 mM DTT pH 7.85, with protease inhibitors) followed by forced passage (12 times) through a 25 gauge needle. After centrifugation (1700 g) the supernatant (the nucleoplasm) was saved. The pellet (CEF) was washed twice before resuspending by sonication in 10 mM TrisHCl, 10% sucrose, 10 mM MgCl2 pH 7.4, with protease inhibitors. The protein content of all fractions was determined using the Bradford reagent (BioRad). PtdIns4P and PtdIns5P were measured using in vitro mass assays employing recombinant type I and type II PIP kinases, respectively. The product PtdIns(4,5)P2 was separated by TLC. The amount of radioactivity found in PtdIns(4,5)P2 was proportional to the amount of PtdInsP isomer in the neomycin affinity-purified lipid extract.
However, no studies have determined a role for nuclear phosphoinositides or defined downstream protein targets mediating phosphoinositide-stress activated pathways. To study changes in nuclear phosphoinositides in response to cellular stress, we used Murine erythroleukaemia (MEL) cells as a model system because preparations of nuclei from these cells have been proven to be of high purity. To visualise changes in phosphoinositides, various independent methods were used. The mass level of both PtdIns4P and PtdIns5P were measured using an assay that relies on the differential in vitro specificities of type I and type II PIP kinases. […] Gamma irradiation (10 Gy) led to a small (approximately 20%) decrease in the PtdIns4P level but no detectable change in the level of PtdIns5P in whole nuclei (FIG. 1a). To determine if nuclear PtdInsPs were regulated by oxidative stress we treated differentiated MEL cells with H2O2, BSO (L-buthionine[S,R]-sulphoximine, a glutamyl-cysteine synthetase inhibitor, which increases intracellular reactive oxygen species (ROS)) or NAC. (N-acetyl-cysteine, which increases cellular glutathione levels and cell' capability to deal with ROS). […]

ING2 = test: Western blot of endogenous ING2 associated with the CEF of MEL cells; type: cell-based, Murine; conditions: MEL cells; 200 J/m UV; NAC 5 mM 4 hours, wortmannin 200 nM and 5 μM, curcumin 100 μM
Method: FIG. 4. A) Exponentially growing MEL cells were irradiated with either 200 J/m of UV light or 10 Gy of gamma radiation. After 30 minutes the CEF was isolated and the subjected to SDS-PAGE followed by transfer of the separated proteins to a nitrocellulose membrane. Western blotting for endogenous ING2 and histone 4 proteins was performed. Representative western blots are shown. B) Exponentially growing MEL cells were incubated in the absence or presence of N-acetyl cysteine (NAC) (5 mM) for 4 hours prior to a control irradiation or exposed to 200 J/m of UV light before the isolation of the CEF. Differentiated MEL cells were incubated in the absence or presence of H2O2 (500 μM) for 15 minutes prior to the isolation of the CEF. Proteins in the CEF were subjected to SDS-PAGE followed by transfer to a nitrocellulose membrane. Western blotting for endogenous ING2 and histone 4 proteins was performed. Representative western blots are shown. C) MEL cells were preincubated with either vehicle, wortmannin (200 nM and 5 μM) or curcumin (100 μM) were irradiated with 200 J/m of UV light. After 30 minutes the CEF was isolated and proteins were subjected to SDS-PAGE followed by transfer to a nitrocellulose membrane. Western blotting for endogenous ING2 and histone 4 proteins was performed. Representative western blots are shown. D) The CEF from transiently transfected MEL cells with either pSuper or pSuper-IIβRNAi was prepared. Proteins in the CEF were subjected to SDS-PAGE followed by transfer to a nitrocellulose membrane. […] Proteins were analysed by standard western blotting procedures employing the following antibodies: anti-tubulin and anti-flag (both from Sigma), anti-actin (Chemicon International), anti-histone 4 (Upstate Biotechnology), anti-phospho p54, anti-phospho p46, anti-phospho p38, total p54, total p46 and total p38 (all from Cell Signalling Technology) anti-ING2, anti EGFP (Clontech), anti-type II β PIP kinase, anti-GST and anti-myc (both generated in house).

## neurokinin A (HKTDSFVGLM; ends and bridges not checked; UniProt P20366 98-107, looked up) [growth factor used to stimulate PtdIns(4,5)P2 depletion]
[1]
  PtdIns(4,5)P2 levels (GFP-PH probe at plasma membrane) after growth factor stimulation: depletion

## C[S+]([O-])c1ccc(-c2nc(-c3ccncc3)c(-c3ccc(F)cc3)[nH]2)cc1 (centres unmarked) [SB 203580]
Type II β PIP kinase; pre-treatment of MEL cells
  UV light-induced inhibition of type II β PIP kinase activity: blocked

## phosphatidylinositol 4,5-bisphosphate [PtdIns(4,5) P2]
[2]; 10 nM-1 uM PtdIns(4,5)P—F PH domain complex, duplicates (FIG. 7)
  concentration at which unlabelled lipid disrupts the complex fully: 1 mM
[2]; PtdIns(4,5)P—F PH domain complex (10 nM/500 nM) (FIG. 20)
  concentration at which unlabelled lipid disrupts the complex fully: 0.00075 mM

## COC[C@H]1OC(=O)c2coc3c2[C@@]1(C)C1=C(C3=O)[C@@H]2CCC(=O)[C@@]2(C)C[C@H]1OC(C)=O [wortmannin]
MEL cells; MEL cells
  effect on the cell cycle profile: no effect
MEL cells
  effect on MEL cell viability: no effect

## CCCCS(=N)(=O)CCC(N)C(=O)O [BSO, L-buthionine[S,R]-sulphoximine]
[3]
  level of nuclear PtdIns4P: increased
  level of nuclear PtdIns5P: increased

## PtdIns5P
[2]; 10 nM-1 uM PtdIns(4,5)P—F PH domain complex (FIG. 7)
  effect on the complex: no effect

## COc1ccc(C[C@H]2NC[C@H](O)[C@H]2OC(C)=O)cc1 [anisomycin]
Type II β PIP kinase; treatment of cells
  inhibition of type II β PIP kinase activity: approximately 50%

## D-myo-Phosphatidylinositol 4-phosphate [PtdIns4P]
[2]; at 5 μM, PtdIns(4,5)P—F PH domain complex (10 nM/500 nM) (FIG. 20)
  effect on the complex: no effect

## CC(=O)N[C@@H](CS)C(=O)O [NAC, N-acetyl-cysteine]
[3]
  level of nuclear PtdIns4P: lowered
  level of nuclear PtdIns5P: lowered
ING2
  UV-induced translocation of endogenous ING2 to the CEF: did not block
